Source: the NIST ThermoML archive (doi:10.1016/j.jct.2018.09.031)
Numbers after ± are expanded uncertainties.

Conditions: 101.33 kPa, Liquid; for kinematic viscosity: Capillary tube (Ostwald / Ubbelohde) method; for mass density: Pycnometric method

OCCO [1,2-ethanediol]
Conditions | kinematic viscosity [m2/s] | mass density [kg/m3]
273.15 K | 5.1e-05 ± 1.5e-06 | 1127.43 ± 6.3
283.15 K | 2.96e-05 ± 9e-07 | 1120.35 ± 6.3
293.15 K | 1.92e-05 ± 5.9e-07 | 1113.25 ± 6.2
303.15 K | 1.28e-05 ± 3.9e-07 | 1106.26 ± 6.2
313.15 K | 8.8e-06 ± 2.7e-07 | 1099.2 ± 6.2
323.15 K | 6.22e-06 ± 1.9e-07 | 1092.07 ± 6.1
333.15 K | 4.6e-06 ± 1.4e-07 | 1084.84 ± 6.1
